Test results from patent EP0693481A1, “Prodrugs of 5,5-diphenylhydantoin as antiepileptic and antiarrhythmic agents” (LABORATORIOS RUBIO, S.A., priority 1994, dated 1996).
Where a name gives a salt, the structure may show the parent alone. Read-outs that look alike come from different tables or passages of the source. Each block holds one compound with its values, some of them ahead of it.

Assay: Hydrolisis rate of prodrug in whole rat blood (Franz-type cell, phenytoin measured by HPLC)
Type: in vitro ADME
Settings: for hydrolisis (rate, in words): blood hydrolisis, summary statement on Tables 1 and 2; for metabolised at 10 s: time 0.17 min; for metabolised at 20 s: time 0.33 min; for metabolised at 0.5 min: time 0.50 min; for metabolised at 0.025 h: time 1.5 min; for metabolised at 0.8 h: time 48.00 min; for metabolised at 15 s: time 0.25 min; for metabolised at 0.25 h: time 15.00 min; for metabolised at 1 h: time 60.00 min; for metabolised at 2.45 h: time 147.00 min; for metabolised at 3.15 h: time 189.00 min
Description: To study the hydrolisis of prodrugs in blood, Franz-type permeation cells of the company Crown Glass Co. Somerville, N.Y. have been used. The receiving compartment is used which allows for water recirculation using a glass packet in order to keep the system at 37 °C. This compartment is equipped with magnetic stirring.
For the experiment, male Wistar albino rats weighing 200-275 g, bred and selected at the stabularium of the School of Pharmacy of Barcelona, were used. The animals were fasted for 20 hours before starting the trials, but they were given water ad libitum throughout this period. In order to avoid coprophagy, the animals were placed in cages with a broad wire netting bottom.
After anesthesizing the rat, blood was drawn by cardiac puncture. A known amount of blood (10 ml) containing a prodrug concentration of 40 µg/ml was introduced through the lateral tubes of the receiving compartment of Franz cells. The system was kept at 37 °C and stirred magnetically, samples were taken (1 ml) and phenytoin was measured in each of them by HPLC.
The analytical methods were validated prior to estimating phenytoin levels in blood samples.
As in the previous case, three replicates of the tested product were used.

[1] = rat, whole blood, whole rat blood, 37 °C, prodrug 40 µg/ml, mean of replicates, read-out: % HYDROLISIS IN WHOLE BLOOD, m ± s.d.
[2] = rat, whole blood, whole rat blood, 37 °C, prodrug 40 µg/ml, replicate 1, read-out: % HYDROLISIS IN WHOLE BLOOD
[3] = rat, whole blood, whole rat blood, 37 °C, prodrug 40 µg/ml, replicate 2, read-out: % HYDROLISIS IN WHOLE BLOOD
[4] = rat, whole blood, whole rat blood, 37 °C, prodrug 40 µg/ml, replicate 3, read-out: % HYDROLISIS IN WHOLE BLOOD
[5] = rat, whole blood, whole rat blood, 37 °C, mean of replicates, read-out: % HYDROLISIS IN WHOLE BLOOD, m ± s.d.
[6] = rat, whole blood, whole rat blood, 37 °C, replicate 1, read-out: % HYDROLISIS IN WHOLE BLOOD
[7] = rat, whole blood, whole rat blood, 37 °C, replicate 2, read-out: % HYDROLISIS IN WHOLE BLOOD
[8] = rat, whole blood, whole rat blood, 37 °C, replicate 3, read-out: % HYDROLISIS IN WHOLE BLOOD

SMILES: CN1CCN(CC(=O)OCN2C(=O)NC(c3ccccc3)(c3ccccc3)C2=O)CC1 [IX, 5,5-diphenyl-3-[(4-methylpiperazinyl)-acetoxymethyl]hydantoin dihydrochloride]
hydrolisis (rate, in words): virtually instantaneous | metabolised at 10 s [1]: 100 ± 7.96% | metabolised at 10 s [2]: 99% | metabolised at 10 s [3]: 109% | metabolised at 10 s [4]: 93.1% | metabolised at 20 s [1]: 102 ± 20.8% | metabolised at 20 s [2]: 85.6% | metabolised at 20 s [3]: 95.8% | metabolised at 20 s [4]: 126% | metabolised at 0.5 min [1]: 102 ± 13.2% | metabolised at 0.5 min [2]: 92.7% | metabolised at 0.5 min [3]: 96.5% | metabolised at 0.5 min [4]: 117% | metabolised at 0.025 h [1]: 104 ± 7.14% | metabolised at 0.025 h [2]: 95.8% | metabolised at 0.025 h [3]: 108% | metabolised at 0.025 h [4]: 109% | metabolised at 5 min [1]: 109% | metabolised at 5 min [2]: 105% | metabolised at 5 min [3]: 117% | metabolised at 5 min [4]: 105% | metabolised at 16 min [1]: 115 ± 5.79% | metabolised at 16 min [3]: 119% | metabolised at 16 min [4]: 110% | metabolised at 0.8 h [1]: 100 ± 3.91% | metabolised at 0.8 h [2]: 97.2% | metabolised at 0.8 h [3]: 99.4% | metabolised at 0.8 h [4]: 105% | metabolised at 115 min (rat, whole blood, whole rat blood, 37 °C, prodrug 40 µg/ml, time 115.00 min, replicate 2): 99.7%

hydrolisis (rate, in words): much more slower | metabolised at 0.5 min [1]: 8.47 ± 2.79% | metabolised at 0.5 min [2]: 6.37% | metabolised at 0.5 min [3]: 7.41% | metabolised at 0.5 min [4]: 11.7% | metabolised at 15 s [5]: 4.72 ± 1.84% | metabolised at 15 s [6]: 3.42% | metabolised at 15 s [7]: 6.03% | metabolised at 2 min [5]: 15.1 ± 7.72% | metabolised at 2 min [6]: 10.5% | metabolised at 2 min [7]: 10.8% | metabolised at 2 min [8]: 24% | metabolised at 7 min [5]: 33.2 ± 12.3% | metabolised at 7 min [6]: 21.4% | metabolised at 7 min [7]: 32% | metabolised at 7 min [8]: 46% | metabolised at 0.25 h [5]: 59.6 ± 29.8% | metabolised at 0.25 h [6]: 38.9% | metabolised at 0.25 h [7]: 46.1% | metabolised at 0.25 h [8]: 93.8% | metabolised at 1 h [5]: 77.7 ± 4.6% | metabolised at 1 h [6]: 74.5% | metabolised at 1 h [7]: 81% | metabolised at 2.45 h [5]: 81.31 ± 0.47% | metabolised at 2.45 h [6]: 81% | metabolised at 2.45 h [7]: 81.7% | metabolised at 3.15 h [5]: 88.5 ± 13.1% | metabolised at 3.15 h [6]: 79.3% | metabolised at 3.15 h [7]: 97.7%
SMILES: O=C1NC(c2ccccc2)(c2ccccc2)C(=O)N1COP(=O)(O)O [XI, disodium salt of 5,5-diphenyl-3-(hydroxymethyl]hydantoin phosphoric ester]
